Laboratory results from US20200316090A1, “TARGETED THERAPEUTICS” (MADRIGAL PHARMACEUTICALS, INC., priority 2012, published 2020).

Columns and labels:
[1] = Tissue distribution of ganetespib in female CD-1 nu/nu mice bearing RERF human NSCLC xenografts; assay type: in vivo; conditions: mouse, tumor, ganetespib 50 mg/kg IV, DRD
From the text: Tissue Distribution of Ganetespib in Female CD-1 Nu/Nu Mice Bearing RERF Human NSCLC Xenografts
To confirm the distribution of ganetespib in blood, livers, kidneys, brains, hearts, lungs and tumors after IV administration of ganetespib to female CD-1 nu/nu mice bearing RERF human NSCLC xenografts, and to examine metabolic profiles of ganetespib in plasma, red blood cells, and above tissues.
Animals: female CD-1 nu/nu mice bearing RERF human NSCLC xenografts (N=3/group)
Formulation: 10% DMSO, 18% Cremophor RH40, 3.6% dextrose solution (DRD)
Bleeding time points: 5 min, 6, 24 hr
Collected tissues: blood (plasma and red blood cells (RBC)), liver, kidneys, brain, heart, lung, tumor
Protein precipitation: 50 μL of 10 times diluted plasma or RBC+150 μL ACN (10 mM NH4OAc), vortexed and centrifuged at 10000 rpm for 8 min; 150 μL supernatant+150 μL water (10 mM NH4OAc)
Protein precipitation: 100 μL homogenized tissue (1:3 tissue: PBS buffer)+100 μL ACN (10 mM NH4OAc), vortexed and centrifuged at 10000 rpm for 8 min

HER2 = HER2 degradation in BT-474 cells (Example 3, Method 1 Western blot / Method 2 LI-COR imaging); assay type: cell-based, human; conditions: 0.5 μM, overnight
From the text: This example illustrates how a HER2 degradation assay may be used as a test to determine and select Hsp90-targeting moieties suitable for use in SDC-TRAPs of the invention, and further illustrates the ability of SDC-TRAPs to target cells preferentially expressing Hsp90. Such a test may further be used to determine the Hsp90 binding ability of SDC-TRAPs of the invention, as well as through competitive binding assays and cell-based Hsp90 client protein degradation assays known in the art.
After treatment, each cytoplasmic sample is prepared from 1×10^6 cells by incubation of cell lysis buffer (#9803, Cell Signaling Technology) on ice for 10 minutes. The resulting supernatant used as the cytosol fractions is dissolved with sample buffer for SDS-PAGE and run on a SDS-PAGE gel, blotted onto a nitrocellulose membrane by using semi-dry transfer. […]
Cells are then fixed in 4% phosphate-buffered paraformaldehyde for 30 minutes at room temperature and then permeabilized by washing five times with 0.1% Triton X-100 in PBS for 5 minutes at room temperature on a shaker. […] The raw data is normalized to DRAQS and the HER2 EC50 is calculated using XLfit™ […]

[2] = Mouse plasma stability (Examples 16-18); assay type: in vitro ADME; conditions: 37° C.
Protocol: This solution was used to precipitate all plasma samples in the study. 200 μL was pipetted into a 96 deepwell plate over dry ice. 10 μL of 1 mM stock in DMSO was added to a 1.5 mL microfuge tube, then 990 μL of plasma. Samples were mixed by vortex, then 50 μL of each sample was added in triplicate to a 96-well plate containing internal standard solution. This was designated the 0 hour time point sample. 250 μL of the remaining plasma sample was added to each of four 96 deepwell plates—one per time point. Samples were incubated at 37° C. with gentle shaking for 0.25, 0.5, and 1 hour. After each time point, one plate of each sample was removed from the shaker and placed on wet ice for approximately 2 minutes. 50 μL plasma aliquots (in triplicate) were added to the deepwell plate containing internal standard solution. After the last time point was extracted, the 96 deepwell plate was vortexed, then centrifuged at 2-8° C. 150 μL of supernatant was collected and 25 μL of water was added. Samples were mixed and analyzed by LC-MS/MS.
The stability of seven SDC-TRAP types in mouse plasma was measured as follows. 990 μL mouse plasma aliquots from a common stock were spiked with 10 μL of 1 mM stock of one of seven SDC-TRAP samples identified in the table below. Each sample was mixed and divided into 250 μL aliquots, each representing time points 0, 15 minutes, 30 minutes or 1 hour. At the prescribed time point, 3×50 μL samples were each mixed with 200 μL of methanol containing internal standard and held on dry ice until all time point samples were extracted. The samples collectively were vortex mixed for 1.5 minutes at 1500 rpm, then centrifuged at 4400 rpm for 10 minutes at 8° C.

[3] = Tissue distribution of SDC-TRAP and degradation products in tumor-bearing mice (plasma, tumor, heart); assay type: in vivo, Female SCID Mouse (H1975); conditions: female, SCID, mouse, in vivo
Protocol: A 150 ng/mL solution of SDC-TRAP-0002 in methanol was prepared using an internal spiking solution (500 μg/mL SDC-TRAP-0002 in DMSO). Using the 10 mM stock solutions of the SDC-TRAP molecule and its Hsp90i binding moiety and effector moiety in DMSO, spiking solutions were prepared at 0.025, 0.05, 0.1, 0.5, 1, 5, 10, 50, 100, 250, and 500 μM in DMSO. 5 μL of each spiking solution was added to a 96-deep well plate.
Quality control standards were prepared from 5 μL of 0.1, 1, and 10 μM calibration standard spiking solution added in triplicate into 96-deep well plate and adding 50 μL of matrix (plasma or homogenized tumor).
To prepare test samples, test plasma was diluted as needed using blank plasma. Tumor samples were pulverized in liquid nitrogen, weighed, and homogenized in PBS at 5× volume to sample weight. 50 μL of unknown plasma or homogenized tumor sample was mixed with 5 μL of DMSO. The samples were extracted by precipitating calibration standards, QC standards, and unknown samples with 200 μL of internal standard solution. The samples were mixed by vortex at room temperature for approximately 1.5 minutes, then centrifuge at 2-8° C. 150 μL of supernatant was collected and 25 μL of water added. Samples were mixed and analyzed by LC-MS/MS.
Samples of plasma, heart and tumor were excised from a euthanized mouse, homogenized in PBS at 5 times tissue weight and diluted in 5 μL DMSO/50 μL sample. Prior to analysis, 55 μL samples and calibration standards were precipitated in 200 μL methanol in 96-well plates. Samples were mixed on a vortex mixer for 1.5 minutes at 1500 rpm at room temperature, then centrifuged at 4400 rpm for 10 minutes at 8° C. 150 μL of each supernatant was transferred to a well of a new 96-well plate, and 25 μL of water was added and mixed with the sample. […] For the analysis of samples from female SCID mice, a gradient of solvent A (water/0.1% formic acid) and B (acetonitrile/0.1% formic acid) was used as in Table A below.

in vitro = conditions: PAMPA, Permeability (cm/s)
Protocol: (§1) In order to test the ability SDC-TRAP molecules of the invention to enter cells, an artificial membrane permeability assay (“PAMPA”) was used. […] LC/MS was used in conjunction with PAMPA assays to determine the ability of the SDC-TRAP molecules of the invention to permeate cells.
(§2) Pre-coated PAMPA plates were warmed to room temperature for at least 30 minutes prior to adding assay components.
(§3) Stock solutions were prepared with the SDC-TRAP molecules to be tested. In order to make a working solution, either 50 μL of 100 μM Stock in DMSO+950 μL of PBS or 50 μL of 200 stock was added to 96 deep well plate, resulting in a 5 μM final concentration or a 10 μM final concentration, respectively. […] 200 μL of PBS was added into the corresponding wells of an acceptor PAMPA plates.
(§4) The acceptor plate was lowered onto the donor plate and allowed to incubate for five hours. After five hours, a 50 μL aliquot was removed from each well of each plate and added into a new 96 deep-well plate.
(§5) 100 μL of methanol containing an internal standard was added to each aliquot and analyzed by LC/MS. The internal standard was 150 ng/ml SDC-TRAP-0002.
(§6) In order to calculate the permeability for each SDC-TRAP molecule and the control molecules, the following formula was used:
Permeability (in Unit of Cm/s):
(§7) [formula] • C0=initial compound concentration in donor well (mM) • CD (t)=compound concentration in donor well at time t. (mM) • CA (t)=compound concentration in acceptor well at time t. (mM) • VD=donor well volume=0.3 mL • VA=acceptor well volume=0.2 mL • A=filter area=0.3 cm^2 • t=incubation time=18000 s (5 h)
(§8) For the data presented in the table below, peak area was used in place of concentration in the formula above.

[4] = Artificial membrane permeability assay (PAMPA); conditions: for Papp at 5 h: Permeability (10^−6 cm/s)
Protocol: as §1, §2, §3, §4, §5, §6
Permeability (in Unit of Cm/s):
as §7, §8

[5] = 5 h incubation, peak area used in place of concentration, first table

## CC(C)c1cc(-c2n[nH]c(=O)n2-c2ccc3c(ccn3C)c2)c(O)cc1O [ganetespib]
[1]
  concentration at 5 min: 2350 nM

## C=CCNC1=C2C[C@@H](C)C[C@H](OC)[C@H](O)[C@@H](C)/C=C(\C)[C@H](OC(N)=O)[C@@H](OC)/C=C\C=C(/C)C(=O)NC(=CC1=O)C2=O [17-AAG]
HER2
  degradation of HER2: partial degradation of HER2

## CCc1c2c(nc3ccc(O)cc13)-c1cc3c(c(=O)n1C2)COC(=O)[C@]3(O)CC [SN-38, reference compound]
[2]; 5 μM, 1 h, sum of both peaks of parent chromatogram
  Mouse (5 μM) % Remaining 1 h (37° C.) *: 87%
[2]; 5 μM, 19 h
  Mouse (5 μM) % Remaining 19 h (37° C.): 52%
[2]; 10 μM, 1 h, sum of both peaks of parent chromatogram
  Mouse (10 μM) % Remaining 1 h (37° C.) *: 64%
[3]
  Kp at 6 h: 5.8
  Kp at 12 h: 105
  Kp at 24 h: 105
  Kp at […]: 0.13
  concentration at 6 h: 77.3 nM
  concentration at 12 h: 9.55 nM
  concentration at 24 h: 9.55 nM
[3]; 24 h
  Tumor Conc.: 1.07 nmol/g of tissue
[3]; 48 h
  Tumor Conc.: 0.046 nmol/g of tissue
In vitro; [5]
  Papp: 0.643 ×10⁻⁶ cm/s
In vitro; same protocol, second table
  Papp: 1.87 ×10⁻⁶ cm/s
[4]; 5 h incubation, first table
  Mass Retention (%): 38.2%
[4]; [5]
  Papp at 5 h: 0.643 ×10⁻⁶ cm/s
[4]; same protocol, second table
  Papp at 5 h: 1.87 ×10⁻⁶ cm/s
  Mass Retention (%): 46.6%
